{
  "source": "patent US20130065931A1",
  "about": "“METHODS FOR REDUCING WIREWORM DAMAGE TO CROPS” (priority 2011, published 2013)",
  "test_system": "wireworm",
  "assay": "Efficacy of chemical treatments on wireworm in potatoes grown in Washington State",
  "type": "in vivo",
  "conditions": "result in words; values only in the figure",
  "from_the_text": "Experimental procedure for determining the efficacy of various chemical treatments on wire-worm in potatoes grown in Washington State, United States. Potato seed Solarium tuberosum L., ‘Russet Burbank’ was used in this experiment. Seeds were planted at a depth of 8 inches with spacing within the row at 10 inches and between rows at 34 inches. The experimental site was a 12 ft. by 20 ft. plot containing four experimental replications. [table] [table] [table]",
  "data": [
    {"smiles": "CCOC(=O)OC1=C(c2cc(C)ccc2C)C(=O)N[C@]12CC[C@@H](OC)CC2", "note": "[spirotetramat]", "values": [
      {"measurement": "percent reduction in wireworm infestation of potatoes (FIG. 3)", "result": "confirm the efficacy"}
    ]}
  ]
}
